{
  "source": "patent EP1180991B1",
  "about": "“GAMBOGIC ACID DERIVATIVES AS ACTIVATORS OF CASPASES AND INDUCERS OF APOPTOSIS” (Cytovia, Inc., priority 1999, dated 2000)",
  "key": {"T-47D [1]": {"system": "T-47D", "test": "Caspase cascade activation by known antineoplastic compounds (Example 92)", "conditions": "24 h; for fold induction at 10 µM: Homo sapiens, T47D, read-out: ratio of the net RFU value for test compounds to that of control samples (caspase cascade activation)", "method": "(§3) The samples were mixed by agitation and then incubated at 37° C for 24 h in a 5% CO2-95% humidity incubator. […] The samples were mixed by agitation and incubated for 3 h at room temperature. […] After the 3 h incubation, the samples were read for fluorescence as above (T = 3 h).\n(§4) The Relative Fluorescence Unit values (RFU) were used to calculate the sample readings as follows: RFU(T=3⁢hr) −Control RFU(T=0) = Net RFU(T=3⁢hr) [formula]\n(§5) The activity in caspase cascade activation was determined by the ratio of the net RFU value for test compounds to that of control samples."}, "PC-3 [2]": {"system": "PC-3", "test": "Caspase cascade activation by known antineoplastic compounds (Example 92)", "conditions": "for fold induction at 10 µM: Homo sapiens, PC-3, 24 h, read-out: ratio of the net RFU value for test compounds to that of control samples (caspase cascade activation)", "method": "as §3, §4, §5"}, "PC-3 [3]": {"system": "PC-3", "test": "Caspase cascade activation assay (Example 90)", "assay_type": "cell-based, human", "conditions": "PC-3, 24 h incubation; for caspase activity (Ratio): 0.16 to 10 µM final, net RFU ratio to control", "description": "(§1) Human breast cancer cell lines T-47D and ZR-75-1, human prostate cancer cell line PC-3, human leukemia cancer cell line HL-60 and human non-transformed fibroblast cell line MRC-5 cells were grown according to media component mixtures designated by The American Type Culture Collection + 10% FCS (Life Technologies, Inc.), in a 5% CO2 -95% humidity incubator at 37° C. T-47D, ZR-75-1 and PC-3 cells were maintained at a cell density between 30 and 80% confluency and for HL-60 at a cell density of 0.1 to 0.6 x 10^6 cells/ml. Cells were harvested at 600xg and resuspended at 0.65 x 10^6 cells/ml into appropriate media + 10% FCS. […] The samples were mixed by agitation and incubated at room temperature.\n(§2) The EC50 (nM) was determined by a sigmoidal dose-response calculation (Prism 2.0, GraphPad Software Inc.). Caspase Activity and Potency"}, "T-47D [4]": {"system": "T-47D", "test": "Caspase cascade activation assay (Example 90)", "assay_type": "cell-based, human", "conditions": "T-47D, 24 h incubation; for caspase activity (Ratio): 0.16 to 10 µM final, net RFU ratio to control", "description": "as §1, §2"}, "KB-V1": {"system": "KB-V1", "conditions": "Lin et al. 1993; cited from earlier work"}, "KB": {"system": "KB", "conditions": "Lin et al. 1993; cited from earlier work"}, "[5]": {"system": "several cancer cell lines", "conditions": "several cancer cell lines; Cao et al. 1998; cited from earlier work"}, "MRC-5": {"system": "MRC-5", "test": "Caspase cascade activation assay (Example 90)", "assay_type": "cell-based, human", "conditions": "MRC-5 non-transformed fibroblasts; 24 h incubation, 0.16 to 10 µM final; net RFU ratio to control", "description": "as §1, §2"}, "ZR-75-1": {"system": "ZR-75-1", "test": "Caspase cascade activation assay (Example 90)", "assay_type": "cell-based, human", "conditions": "ZR-75-1; 24 h incubation, 0.16 to 10 µM final; net RFU ratio to control", "description": "as §1, §2"}, "HL-60": {"system": "HL-60", "test": "Caspase cascade activation assay (Example 90)", "assay_type": "cell-based, human", "conditions": "HL-60; 24 h incubation, 0.16 to 10 µM final; net RFU ratio to control", "description": "as §1, §2"}},
  "data": [
    {"compound": "O=c1[nH]cc(F)c(=O)[nH]1", "note": "[5-fluorouracil]", "values": [
      {"measurement": "fold induction at 10 µM", "setting": "T-47D [1]", "value": 0.8},
      {"measurement": "fold induction at 10 µM", "setting": "PC-3 [2]", "value": 0.7}
    ]},
    {"compound": "COc1cccc2c1C(=O)c1c(O)c3c(c(O)c1C2=O)C[C@@](O)(C(=O)CO)C[C@@H]3O[C@H]1C[C@H](N)[C@H](O)[C@H](C)O1", "note": "[Doxorubicin]", "values": [
      {"measurement": "fold induction at 10 µM", "setting": "T-47D [1]", "value": 1.3},
      {"measurement": "fold induction at 10 µM", "setting": "PC-3 [2]", "value": 1.1}
    ]},
    {"compound": "CC(C)=CCC/C(C)=C/Cc1c(O)c(CC=C(C)C)c2c(c1O)C(=O)C1=CC3CC4C(C)(C)OC(C/C=C(/C)C=O)(C3=O)C14O2", "note": "(stereo not shown) [Example 3, Gambogenin]", "values": [
      {"measurement": "EC50", "setting": "PC-3 [3]; Homo sapiens, caspase activation, read-out: EC50", "value": 1.7, "unit": "µM"},
      {"measurement": "caspase activity (Ratio)", "setting": "PC-3 [3]", "value": 2.9},
      {"measurement": "EC50", "setting": "T-47D [4]; Homo sapiens, T47D, caspase activation, read-out: EC50", "value": 1, "unit": "µM"},
      {"measurement": "caspase activity (Ratio)", "setting": "T-47D [4]", "value": 7.0}
    ]},
    {"compound": "Isogambogic Acid [Example 18]", "values": [
      {"measurement": "cytotoxicity", "setting": "KB-V1", "value": "cytotoxic"},
      {"measurement": "cytotoxicity", "setting": "KB", "value": "cytotoxic"}
    ]},
    {"compound": "CC[C@]1(O)C[C@@H]2CN(CCc3c([nH]c4ccccc34)[C@@](C(=O)OC)(c3cc4c(cc3OC)N(C)[C@H]3[C@@](O)(C(=O)OC)[C@H](OC(C)=O)[C@]5(CC)C=CCN6CC[C@]43[C@@H]65)C2)C1", "note": "[Vinblastine]", "values": [
      {"measurement": "fold induction at 10 µM", "setting": "T-47D [1]", "value": 0.9},
      {"measurement": "fold induction at 10 µM", "setting": "PC-3 [2]", "value": 0.8}
    ]},
    {"compound": "CN(Cc1cnc2nc(N)nc(N)c2n1)c1ccc(C(=O)N[C@@H](CCC(=O)O)C(=O)O)cc1", "note": "[Methotrexate]", "values": [
      {"measurement": "fold induction at 10 µM", "setting": "T-47D [1]", "value": 0.8},
      {"measurement": "fold induction at 10 µM", "setting": "PC-3 [2]", "value": 0.7}
    ]},
    {"compound": "N.N.[Cl][Pt][Cl]", "note": "[Cisplatin]", "values": [
      {"measurement": "ratio of the net RFU value for test compounds to that of control samples (caspase cascade activation)", "setting": "T-47D [1]; T-47D, 10 µM final, ratio around 1 = not an efficient activator", "value": 1.1},
      {"measurement": "ratio of the net RFU value for test compounds to that of control samples (caspase cascade activation)", "setting": "PC-3 [2]; PC-3, 10 µM final, 24 h, ratio around 1 = not an efficient activator", "value": 0.9}
    ]},
    {"compound": "CC(C)=CCc1c2c(c(O)c3c1OC14C(=CC5CC1C(C)(C)OC4(C/C=C(/C)C(=O)O)C5=O)C3=O)C=CC(C)(C)O2", "note": "(stereo not shown) [Example 19, Morellic Acid]", "values": [
      {"measurement": "cytotoxicity", "setting": "[5]", "value": "significant cytotoxicity"}
    ]},
    {"compound": "CC(C)=CCCC1(C)C=Cc2c(O)c3c(c(CC=C(C)C)c2O1)OC12C(=CC4CC1C(C)(C)OC2(C/C=C(/C)C(=O)N1CCCCC1)C4=O)C3=O", "note": "(stereo not shown) [Example 5, Gambogyl Piperidine]", "values": [
      {"measurement": "caspase activity (Ratio)", "setting": "MRC-5", "value": 12.6},
      {"measurement": "caspase activity (Ratio)", "setting": "ZR-75-1", "value": 14.3},
      {"measurement": "caspase activity (Ratio)", "setting": "PC-3 [3]", "value": 2.7},
      {"measurement": "caspase activity (Ratio)", "setting": "HL-60", "value": 5.2},
      {"measurement": "caspase activity (Ratio)", "setting": "T-47D [4]", "value": 13.9}
    ]}
  ]
}
